Here are results for 13 compounds from ChEMBL document CHEMBL4417631, “Oral peptide inhibitors of interleukin-23 receptor and their use to treat inflammatory bowel diseases” (2017).

Activity calls are given as the source filed them. The calls are words filed in the database; no cut-off is given here. Where a SMILES comes first, the peptide text is derived from it.

Data set [1] can be described thus: Half life in DTT at 50 uM up up to 120 mins by reverse phase HPLC and UV detection based assay. The class given is physicochemical.
The target in data set [2] is T1, Interleukin-23 receptor (Homo sapiens, UniProt Q5VWK5).
T1 sequence (Q5VWK5 whole entry): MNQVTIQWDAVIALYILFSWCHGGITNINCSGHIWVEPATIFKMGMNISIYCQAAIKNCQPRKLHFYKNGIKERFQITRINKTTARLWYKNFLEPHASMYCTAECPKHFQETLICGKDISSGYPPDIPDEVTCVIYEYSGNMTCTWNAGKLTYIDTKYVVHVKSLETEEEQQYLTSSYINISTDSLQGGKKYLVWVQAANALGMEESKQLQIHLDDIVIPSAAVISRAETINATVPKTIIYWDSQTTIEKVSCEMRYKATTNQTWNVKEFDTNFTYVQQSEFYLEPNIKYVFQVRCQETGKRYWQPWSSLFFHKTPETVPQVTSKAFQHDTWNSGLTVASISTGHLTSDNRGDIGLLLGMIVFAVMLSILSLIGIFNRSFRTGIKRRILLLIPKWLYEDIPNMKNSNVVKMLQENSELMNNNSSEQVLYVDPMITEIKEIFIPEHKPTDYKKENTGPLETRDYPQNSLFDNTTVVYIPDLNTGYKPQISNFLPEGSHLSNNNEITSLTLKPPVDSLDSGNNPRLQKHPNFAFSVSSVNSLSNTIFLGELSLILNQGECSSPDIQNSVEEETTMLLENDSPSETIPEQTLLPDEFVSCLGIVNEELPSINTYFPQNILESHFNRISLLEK
In words: Inhibition of interleukin-23 binding to human interleukin-23 receptor incubated for 2 hrs by competitive binding ELISA. (In general: In an ELISA, binding on a coated surface is turned into a signal by an enzyme label.)

The nature of data set [3]: Half life in simulated intestinal fluid at 20 uM by LC-MS/MS analysis. The format is ADME.
A short description of data set [4]: Inhibition of interleukin-23 binding to rat interleukin-23 receptor incubated for 2 hrs by competitive binding ELISA.
Data set [5] has as its target T1, Interleukin-23 receptor. Nature of the data set: Inhibition of interleukin-23 receptor in human DB cells assessed as reduction in IL-23-stimulated STAT3 phosphorylation incubated for 30 mins by HTRF assay. The class given is cell-based.
The nature of data set [6]: Half life in simulated gastric fluid at 20 uM by LC-MS/MS analysis. The format is ADME.
Data set [7] has as its target T2, Interleukin-23 receptor (Mus musculus, UniProt Q8K4B4).
T2 sequence (Q8K4B4 whole entry): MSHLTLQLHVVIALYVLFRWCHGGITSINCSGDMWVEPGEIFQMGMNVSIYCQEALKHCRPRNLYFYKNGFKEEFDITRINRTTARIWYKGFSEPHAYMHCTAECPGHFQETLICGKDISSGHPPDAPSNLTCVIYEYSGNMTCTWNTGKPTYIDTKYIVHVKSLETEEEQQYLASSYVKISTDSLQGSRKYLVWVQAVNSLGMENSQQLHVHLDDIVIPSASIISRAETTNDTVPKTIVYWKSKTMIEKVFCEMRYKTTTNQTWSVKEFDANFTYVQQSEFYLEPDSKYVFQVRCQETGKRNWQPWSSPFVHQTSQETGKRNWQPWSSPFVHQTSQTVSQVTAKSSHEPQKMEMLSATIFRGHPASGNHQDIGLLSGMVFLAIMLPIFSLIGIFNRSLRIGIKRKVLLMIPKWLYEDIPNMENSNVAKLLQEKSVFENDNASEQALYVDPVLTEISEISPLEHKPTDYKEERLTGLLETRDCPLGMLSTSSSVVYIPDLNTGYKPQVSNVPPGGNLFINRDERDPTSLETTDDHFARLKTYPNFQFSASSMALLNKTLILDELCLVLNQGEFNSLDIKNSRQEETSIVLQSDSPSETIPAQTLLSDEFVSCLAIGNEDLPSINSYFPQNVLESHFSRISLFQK
In words: Inhibition of interleukin-23 binding to mouse interleukin-23 receptor incubated for 2 hrs by competitive binding ELISA.

The target of data set [8] is T1, Interleukin-23 receptor. In words: Inhibition of interleukin-23 receptor in human natural killer cells assessed as reduction in IL23/IL18-induced IFNgamma production incubated for 20 to 24 hrs by ELISA. The format is cell-based.
A short description of data set [9]: Inhibition of interleukin-23 binding to cynomolgus monkey interleukin-23 receptor incubated for 2 hrs by competitive binding ELISA. Details: species or system Macaca fascicularis.
The next data set has as its system Rattus norvegicus. Nature of the data set: Anti-colitis activity in Sprague-Dawley rat model of DSS-induced colitis assessed as reduction in disease activity index at 100 mg/kg, po qd for 9 days. The format is functional, organism-based.

What is called half-life is how long it takes for the measured level to halve. One may read the IC50 as the concentration that gives 50% inhibition. For the compound `CC(=O)N[C@@H](CS)C(=O)N[C@@H](CCCNC(=N)N)C(=O)N[C@H](C(=O)N[C@@H](Cc1c[nH]c2ccccc12)C(=O)N[C@@H](CCC(=O)O)C(=O)N[C@@H](CS)C(=O)N[C@@H](Cc1ccc(O)cc1)C(=O)N[C@@H](Cc1c[nH]c2ccccc12)C(=O)N[C@@H](Cc1cnc[nH]1)C(=O)N[C@@H](CCC(=O)O)C(=O)N[C@@H](Cc1ccccc1)C(=O)NCC(N)=O)[C@@H](C)O` (Ac-CRTWECYWHEFG-NH2), the half-life at 50 µM in data set [1] was < 0.167 h. Also, on Interleukin-23 receptor [2], the half-inhibitory concentration (IC50) was < 500 nM.

As for `CC(=O)N[C@H](C(=O)N[C@@H](CCC(N)=O)C(=O)N[C@H](C(=O)N[C@@H](Cc1c[nH]c2ccccc12)C(=O)N[C@@H](CCC(N)=O)C(=O)N[C@H](C(=O)N[C@@H](Cc1ccc(O)cc1)C(=O)N[C@@H](Cc1c[nH]c2ccccc12)C(=O)N[C@@](C)(CC(C)C)C(=O)N[C@@H](CCC(=O)O)C(=O)N[C@@H](CC(N)=O)C(=O)NCC(N)=O)C(C)(C)S)[C@@H](C)O)C(C)(C)S`, the half-life at 50 µM in [1] is > 2 h. In addition, the IC50 at Interleukin-23 receptor [2] was in the range of 25 to 100 nM; in data set [4], 100 to 1000 nM; at Interleukin-23 receptor [5], 10 to 25 nM. The compound further registered a half-life at 20 µM in data set [3] of 3 to 6 h.

With `COc1ccc(C[C@H](NC(=O)[C@@H](NC(=O)[C@H](CCC(N)=O)NC(=O)[C@H](Cc2c[nH]c3ccccc23)NC(=O)[C@@H](NC(=O)[C@H](CCC(N)=O)NC(=O)[C@@H](NC(C)=O)C(C)(C)S)[C@@H](C)O)C(C)(C)S)C(=O)N[C@@H](Cc2ccc3ccccc3c2)C(=O)N[C@@](C)(CCCCN)C(=O)N[C@@H](CCC(=O)O)C(=O)N[C@@H](CC(N)=O)C(=O)NCC(N)=O)cc1`, in [1], the half-life at 50 µM is > 2 h. For the same compound, the half-inhibitory concentration (IC50) on Interleukin-23 receptor [2] lay in the range of 25 to 100 nM; in data set [4], 100 to 1000 nM; at Interleukin-23 receptor [5] it was 10 to 25 nM. Besides, the half-life at 20 µM in data set [6] was 2 to 3 h; in data set [3] it was 3 to 6 h.

Take `CC(=O)N[C@H](C(=O)N[C@@H](CCC(N)=O)C(=O)N[C@H](C(=O)N[C@@H](Cc1c[nH]c2ccccc12)C(=O)N[C@@H](CCC(N)=O)C(=O)N[C@H](C(=O)N[C@@H](Cc1ccc(O)cc1)C(=O)N[C@@H](Cc1c[nH]c2ccccc12)C(=O)N[C@@H](CCC(C)C)C(=O)N[C@@H](CCC(=O)O)C(=O)N[C@@H](CC(N)=O)C(=O)NCC(N)=O)C(C)(C)S)[C@@H](C)O)C(C)(C)S`: in [1], the half-life at 50 µM is > 2 h. The compound further gave an IC50 on Interleukin-23 receptor [2] of 100 to 1000 nM. In addition, the half-life at 20 µM in [3] was < 1 h.

Regarding `CC(=O)N[C@H]1CCSC[C@@H](C(=O)N[C@@H](Cc2ccc(OCCN)cc2)C(=O)N[C@@H](Cc2ccc3ccccc3c2)C(=O)NC2(C(=O)N[C@@H](CCC(=O)O)C(=O)N[C@@H](CC(N)=O)C(=O)N[C@@H](CC(N)=O)C(N)=O)CCOCC2)NC(=O)[C@H](CCC(N)=O)NC(=O)[C@H](Cc2c[nH]c3ccccc23)NC(=O)[C@H]([C@@H](C)O)NC(=O)[C@H](CCC(N)=O)NC1=O`, the half-life at 50 µM in data set [1] is > 2 h.

As to `N=C(N)NCCC[C@H](NC(=O)[C@@H](N)CS)C(=O)N[C@@H](CC(=O)O)C(=O)N[C@@H](Cc1c[nH]c2ccccc12)C(=O)N[C@@H](CCC(N)=O)C(=O)N[C@@H](CS)C(=O)N[C@@H](Cc1ccc(O)cc1)C(=O)N[C@@H](Cc1c[nH]c2ccccc12)C(=O)N[C@@H](Cc1cnc[nH]1)C(=O)N[C@@H](CCCCN)C(=O)N[C@@H](Cc1ccccc1)C(=O)NCC(N)=O` (H-CRDWQCYWHKFG-NH2), the IC50 at Interleukin-23 receptor [2] is 251 to 1000 nM; at Interleukin-23 receptor [7], > 25000 nM; in data set [4], 251 to 1000 nM.

For `CC(=O)N[C@H]1CCSC[C@@H](C(=O)N[C@@H](Cc2ccc(O)cc2)C(=O)N[C@@H](Cc2c[nH]c3ccccc23)C(=O)N[C@@H](CCCNC(=N)N)C(=O)N[C@@H](CCCCN)C(=O)N[C@@H](Cc2ccccc2)C(=O)NCC(=O)NCCOCC(=O)N[C@H](CCCCN)C(N)=O)NC(=O)[C@H](CCC(N)=O)NC(=O)[C@H](Cc2c[nH]c3ccccc23)NC(=O)[C@H]([C@@H](C)O)NC(=O)[C@H](CCCNC(=N)N)NC1=O`, the half-life at 50 µM in data set [1] was > 2 h. The IC50 was 25 to 100 nM on Interleukin-23 receptor [2], 100 to 1000 nM in data set [4] and 25 to 100 nM at Interleukin-23 receptor [5]. For the same compound, in data set [3], the half-life at 20 µM is < 1 h.

For `CC(=O)NCCCC[C@H](NC(=O)C(C)(C)NC(=O)[C@H](Cc1ccc2ccccc2c1)NC(=O)[C@H](Cc1ccc(OCCN)cc1)NC(=O)[C@@H](NC(=O)[C@H](CCC(N)=O)NC(=O)[C@H](Cc1c[nH]c2ccccc12)NC(=O)[C@@H](NC(=O)[C@H](CC(N)=O)NC(=O)[C@@H](NC(C)=O)C(C)(C)S)[C@@H](C)O)C(C)(C)S)C(=O)N[C@@H](CC(N)=O)C(=O)N[C@@H](CC(N)=O)C(N)=O`, the IC50 (at Interleukin-23 receptor [2]; at Interleukin-23 receptor [8]; in data set [4]; at Interleukin-23 receptor [5]) was < 10 nM throughout. In addition, the half-life at 20 µM in data set [6] and in [3] was > 6 h each time.

Regarding `CC(=O)N[C@@H](CS)C(=O)N[C@@H](CCC(N)=O)C(=O)N[C@H](C(=O)N[C@@H](Cc1c[nH]c2ccccc12)C(=O)N[C@@H](CCC(N)=O)C(=O)N[C@@H](CS)C(=O)N[C@@H](Cc1ccc(O)cc1)C(=O)N[C@@H](Cc1c[nH]c2ccccc12)C(=O)N[C@@H](CCCNC(N)=O)C(=O)N[C@@H](CN)C(=O)N[C@@H](Cc1ccccc1)C(=O)NCC(=O)NCCOCC(=O)N[C@H](CCCCN)C(N)=O)[C@@H](C)O`, the IC50 was 25 to 10000 nM at Interleukin-23 receptor [2]; 1000 to 10000 nM in data set [9]; > 25000 nM on Interleukin-23 receptor [7]; 1000 to 10000 nM in data set [4]; 1000 to 10000 nM at Interleukin-23 receptor [5].

In [1], `CC(=O)N[C@@H](CS)C(=O)N[C@@H](CCC(N)=O)C(=O)N[C@H](C(=O)N[C@@H](Cc1c[nH]c2ccccc12)C(=O)N[C@@H](CCC(N)=O)C(=O)N[C@@H](CS)C(=O)N[C@@H](Cc1ccc(O)cc1)C(=O)N[C@@H](Cc1c[nH]c2ccccc12)C(=O)N[C@@H](CCC(C)C)C(=O)N[C@@H](CCC(=O)O)C(=O)N[C@@H](CC(N)=O)C(=O)NCC(N)=O)[C@@H](C)O` showed a half-life at 50 µM of 0.167 to 2 h.

With `CC(=O)N[C@@H](CS)C(=O)N[C@@H](C)C(=O)N[C@@H](CC(=O)O)C(=O)N[C@@H](Cc1c[nH]c2ccccc12)C(=O)N[C@H](C(=O)N[C@@H](Cc1c[nH]c2ccccc12)C(=O)N[C@@H](CS)C(=O)N[C@@H](Cc1ccc(O)cc1)C(=O)N[C@@H](Cc1c[nH]c2ccccc12)C(=O)N[C@@H](Cc1cnc[nH]1)C(=O)N[C@H](C(=O)N[C@@H](Cc1ccccc1)C(=O)NCC(=O)N[C@@H](C)C(=O)N1CC[C@H]1C(=O)N[C@H](CCCCN)C(N)=O)[C@@H](C)O)C(C)C`, in data set [1], the half-life at 50 µM is 0.167 to 2 h.

For `CC(C)[C@H](NC(=O)[C@H](Cc1c[nH]c2ccccc12)NC(=O)[C@H](CC(=O)O)NC(=O)[C@H](C)NC(=O)[C@@H](N)CS)C(=O)N[C@@H](CS)C(=O)N[C@@H](Cc1ccc(O)cc1)C(=O)N[C@@H](Cc1c[nH]c2ccccc12)C(=O)N[C@@H](Cc1cnc[nH]1)C(=O)N[C@H](C(=O)N[C@@H](Cc1ccccc1)C(=O)NCC(N)=O)[C@@H](C)O`, the IC50 was 100 to 1000 nM at Interleukin-23 receptor [2]; 1000 to 10000 nM in data set [9]; > 25000 nM at Interleukin-23 receptor [7]; 251 to 1000 nM in data set [4]; 100 to 1000 nM at Interleukin-23 receptor [5].

Take `O=C(O)c1cc(/N=N/c2ccc(S(=O)(=O)Nc3ccccn3)cc2)ccc1O`: the outcome in the data set on Rattus norvegicus was Active.
